Source: publication PMC4033217, “Characterization of Novel PI3Kδ Inhibitors as Potential Therapeutics for SLE and Lupus Nephritis in Pre-Clinical Studies” (Frontiers in Immunology, 2014)
pIC50: −log10 of the molar value. Like-named read-outs stand apart in the source and are kept apart here.

How the values were obtained:
[1] = tested on: pAkt in CD19+ B cells, human whole blood; test: Anti-IgM-induced pAkt in human whole blood; assay type: cell-based; details: B-cell, 5 min, healthy donors
Experimental: Human whole blood was incubated with PI3Kδ inhibitors for 30 min and stimulated with 30 μg/ml anti-IgM (Jackson Immuno Research, West Grove, PA, USA) for 5 min at 37°C. […] Cell were stained with rabbit anti-pAkt (Ser473) followed by the Alexa647-conjugated F(ab′)2 goat anti-rabbit IgG (Invitrogen, Carlsbad, CA, USA), and anti-CD19-PE (BD Biosciences Pharmingen, San Diego, CA, USA). CD19^+ cells were gated for pAkt analysis.

[2] = tested on: pAkt; test: Imax PK/PD model of BCR activation-induced pAkt response; details: mouse, estimated in vivo PD parameter (pAkt)
Source text: An Imax PK/PD model describing BCR activation-induced pAkt response was established using data from in vitro and ex vivo mouse whole blood assays.

[3] = tested on: CD4+CD45RA− memory T-cells; test: T-cell cytokine release assay (anti-CD3/anti-CD28); assay type: cell-based, human; details: for pIC50: Homo sapiens, T-cell, 120 h, memory T-cells, anti-CD3 and anti-CD28, 5 days
Experimental: Purified T-cells were incubated with PI3Kδ inhibitors for 1 h, and stimulated with 5 μg/ml anti-CD3 and 2 μg/ml anti-CD28 for 5 days. Cytokines in the supernatants were measured with Luminex® xMAP® multiplex bead assay kits (Bio-Rad, Hercules, CA, USA).

[4] = Intrinsic clearance in human liver microsomes; assay type: in vitro ADME; details: read-out: In vitro Clint
Source text: (§1) 36 CLint: intrinsic clearance in liver microsomes. h/m: human/mouse. Papp: apparent permeability. uPPB:
(§2) 37 unbound plasma protein binding. […]

[5] = Human PK prediction based on allometric scaling; details: data not shown
[6] = tested on: pAkt and CD69 in B cells; test: Ex vivo mouse whole blood assays (pAkt, CD69) after oral dosing; assay type: in vivo; details: for ED50: Mus musculus, B-cell, naïve C57BL/6N mice, read-out: ED50 inhibition of pAkt and CD69
Experimental: PI3Kδ inhibitors were administered to naïve C57BL/6N mice (Charles River Laboratories, L’Arbresle, France), by gavage at indicated time points before heparinized whole blood was obtained and divided into two aliquots. One aliquot was incubated with anti-IgD as stimulation and another PBS as basal control. pAkt in B cells or CD69 up-regulation on B cell surface of each sample was measured as described for the in vitro assays. The difference between stimulated and basal levels of mean fluorescence intensity (MFI) was calculated as Δ value.

[7] = tested on: pAkt in Ramos B cells; test: BCR-crosslinking (anti-IgM)-induced Akt phosphorylation in Ramos cells; assay type: cell-based; details: Homo sapiens, 0.25 h, anti-IgM 15 min
[8] = tested on: 12 BioMAP human primary cell co-culture systems; test: BioMAP profiling in 12 human primary cell co-culture systems; details: any concentration (from 10 to 33.3 μM as printed), any culture system
Experimental: Overt cytotoxicity of test compounds was assessed by total cell protein staining sulforhodamine B (Sigma-Aldrich, St. Louis, MO, USA) for adherent cells, or by cell viability staining Alamar Blue (Invitrogen, Carlsbad, CA, USA) for non-adherent cells.
Overtly adverse effects of
Proliferation of PBMC (T cells) was
140 quantiﬁ ed by Alamar blue reduction and proliferation of adherent cell types was quantiﬁ ed by SRB
PBMC viability was assessed by adding Alamar blue (Invitrogen, Camarillo, CA) to PBMC
SRB was performed by removing supernatants from plates, washing plates with
Plates are washed ag ain with PBS then,
Overtly cytotoxic compounds are

[9] = tested on: pAkt in B220+ B cells, mouse whole blood; test: Anti-IgD-induced pAkt in mouse whole blood (in vitro); assay type: cell-based; details: for pIC50: B-cell, mouse whole blood in vitro, anti-IgD
Experimental: Whole blood withdrawn from C57BL/6N mice (Charles River Laboratories, L’Arbresle, France) was incubated with PI3Kδ inhibitors for 30 min and stimulated with goat anti-mouse IgD antiserum (eBioscience, San Diego, CA, USA) for 7 min at 37°C. […] Cells were stained with rabbit anti-pAkt (Ser473) for 1 h followed by anti-IgD-FITC, anti-B220-PerCP-Cy5.5 (all BD Biosciences Pharmingen, San Diego, CA, USA), and donkey anti-rabbit IgG-Alexa647 (Invitrogen, Carlsbad, CA, USA) for 30 min at room temperature. B220^+IgD^+ cells were gated for pAkt analysis.

[10] = Unbound plasma protein binding, human; assay type: in vitro ADME; details: unbound fraction
Source text: as §1, §2

[11] = tested on: CD123+/CD303+ pDC cells; test: Plasmacytoid dendritic cell IFN-α release assay (CpG ODN 2395); assay type: cell-based, human
Experimental: Plasmacytoid dendritic cells were isolated from PBMC of healthy volunteers by negative selection using pDC purification kit (Miltenyi Biotech, Bergisch Gladbach, Germany). […] IFN-α in the supernatants was measured from the culture supernatants with Verikine ELISA kit (PBL Assay Science, Piscataway, NJ, USA).

In the case of `O=C(c1nn([C@@H]2CCCN(CCN3CCOCC3)C2)c2c1CS(=O)(=O)c1cc(F)ccc1-2)N1CCOCC1` [MSC2364588, (R)-7-fluoro-3-(morpholin-4-ylcarbonyl)-1-[1-(2-morpholin-4-ylethyl)piperidin-3-yl]-1,4-dihydrothiochro-meno[4,3-c]pyrazole 5,5-dioxide], the pIC50 [1] was 7.49, the pIC50 [2] was 7.33 and the pIC50 ([3]; read-out: IC50 IL-6) was 7.64. The pIC50 ([3]; read-out: IC50 IL-10) was 7.74, the pIC50 ([3]; read-out: IC50 IL-17) was 7.80 and the pIC50 ([3]; read-out: IC50 TNF-α) was 7.24. For the same compound, the “Potency relative to MSC2360844” value ([3]; T-cell cytokines) was 10 times, the microsomal CLint [4] was 21 µL/min/mg and the “Predicted human half-life / dosing frequency” value [5] was “predicted to require twice daily dosing”. The “Effect on pAkt and CD69” value ([6]; 6 h post administration) was “almost no effect”, the ED50 ([6]; 1 h time point) was 3 mg/kg and the ED50 ([6]; 2 h) was roughly 10 mg/kg. The pIC50 [7] was 7.24, the Cytotoxicity [8] was “No signs of cytotoxicity” and the pIC50 ([9]; average, read-out: average IC50 for pAkt) was 7.46. For the same compound, the pIC50 ([9]; representative experiment of Figure 5A, read-out: IC50 pAkt) was 7.23, the “Potency relative to MSC2360844” value ([9]; mouse whole blood in vitro assay) was “approximately 10 folds” and the uPPB % [10] was 100%. For the same compound, the “Suppression of IFNα production by pDCs” value ([11]; CpG oligodeoxynucleotide-induced, TLR9-mediated) was “suppressed” and the pIC50 ([11]; Homo sapiens, Plasmacytoid dendritic cell, pDC, CpG ODN 2395 Type C, 18 h) was 6.98.
